Data set [1] in a line: Phase 1 exploratory trial: safety and tolerability of topical gel on forearms of subjects with actinic keratosis. The data set is classed as in vivo, human. The settings on record: for mean composite LSR scores, time of peak: 8-week trial period; for mean composite LSR scores at Week 8: Week 8, relative to baseline; for number of SAEs of SCC within treated areas: four SAEs in three subjects, about three times more fields treated with ingenol 3-(3,5-diethylisoxazole-4-carboxylate); for most common treatment related AEs: human, in vivo. The source says: Local skin reactions (LSRs) occurs sometimes in the treated area. Often LSRs are quantified by a scale evaluating the following types of skin reactions: erythema, flaking/scaling, crusting, swelling, vasiculation/pustulation, and erosion/ulceration which are categorized into categories 0-4 depending on the severity of the reactions.
A Phase 1 exploratory trial evaluating safety and tolerability of topical administration of ingenol 3-(3,5-diethylisoxazole-4-carboxylate) gel, 0.025%, 0.05% and 0.075% compared to ingenol mebutate gel 0.05% applied on two consecutive days to four separate 25 cm^2 treatment areas on the forearms of subjects with actinic keratosis (field therapy). A single-centre, randomised, active controlled, intra-patient controlled, investigator blind trial.
It is presently believed that ingenol 3-(3,5-diethylisoxazole-4-carboxylate) has a higher efficacy and/or milder LSR profile than ingenol mebutate.
This was a phase 1, single-centre, randomised, active controlled, intra-patient controlled, investigator blinded trial with intra-individual comparisons to explore the safety and tolerability of ingenol 3-(3,5-diethylisoxazole-4-carboxylate) gel 0.025%, 0.05%, and 0.075% compared to ingenol mebutate gel 0.05% applied once daily for two consecutive days on the forearms of subjects with AK.
(§1) The trial population included 40 subjects at least 18 years of age with 12-16 clinically typical, visible, discrete, non-keratotic AK lesions (referred to as selected AK lesions) suitable for RCM within four separate 25 cm^2 (5×5 cm) selected treatment areas (STAs) on the dorsal aspects of the forearms. Each STA was to be separated by at least 5 cm from other STAs.
For each eligible subject, the four STAs are randomised to receive one of four of the investigational product (IP or IPs): • ingenol 3-(3,5-diethylisoxazole-4-carboxylate) gel 0.025% • ingenol 3-(3,5-diethylisoxazole-4-carboxylate) gel 0.05% • ingenol 3-(3,5-diethylisoxazole-4-carboxylate) gel 0.075% • Ingenol mebutate gel 0.05%
Each IP is to be applied to one of the four STAs on each subject according to random assignment on two consecutive days (Day 1 and Day 2). This ensured that all subjects are treated with the four products on both treatment days. The trial consisted of three periods, a screening period, a treatment period, and an observation and follow-up period.
Each IP is applied to one of the four STAs on each subject according to random assignment on two consecutive days (Day 1 and Day 2). The IPs are applied by a specified investigational staff member in the clinical study protocol. Subjects are instructed about post-treatment care and provided with a patient safety and study medication instruction sheet.

Data set [2] has as its system actinic keratosis (AK) lesions. The data set is described as follows: Phase 1 exploratory trial: treatment response of AK lesions (clinical count and Reflectance Confocal Microscopy). The class given is in vivo, human. The settings on record: for RCM findings in lesions: overall, clinically visible AK lesions and subclinical lesions.
Description: To evaluate treatment responses on AKs of the three concentrations of ingenol 3-(3,5-diethylisoxazole-4-carboxylate) gel compared to the ingenol mebutate gel as assessed by reduction in number of clinically visible selected AK lesions eight weeks after treatment.
To evaluate treatment responses on AKs of the three concentrations of ingenol 3-(3,5-diethylisoxazole-4-carboxylate) gel compared to the ingenol mebutate gel as assessed by Reflectance Confocal Microscopy (RCM) scoring of the clinically visible selected AK lesions before and eight weeks after treatment.
as §1
Whenever possible, four visible and discrete selected AK lesions are identified within each of the four STAs. However, one STA with three selected AK lesions is acceptable for a subject. The selected AK lesions are assessed by RCM. If a selected AK lesion could not be confirmed as an AK lesion by RCM, another STA with selected AK lesions has to be identified. In addition, each subject is to have one subclinical AK lesion suitable for RCM within each STA (these subclinical AKs are referred to as selected subclinical AK lesions).
Treatment efficacy is included as a secondary endpoint and assessed by change in number of clinically visible AK lesions from baseline to 8 weeks after treatment and change in RCM scores from baseline to 8 weeks after treatment.

A further data set has as its system dermal tumours. The data set is described as follows: in vivo studies in mice, effects on dermal tumours. The settings on record: compared to ingenol mebutate. The source says:
The exact mechanism of action of ingenol 3-(3,5-diethylisoxazole-4-carboxylate) continues to be investigated, but it is believed that ingenol 3-(3,5-diethylisoxazole-4-carboxylate) has a dual mechanism of action inducing cell death as well as stimulation of immune response.

For data set [3] the following is noted: difficult to treat versus more easily treated anatomical regions; cited from earlier work.

As for `CCc1noc(CC)c1C(=O)O[C@H]1C(C)=C[C@]23C(=O)[C@@H](C=C(CO)[C@@H](O)[C@]12O)[C@H]1[C@@H](C[C@H]3C)C1(C)C` [ingenol 3-(3,5-diethylisoxazole-4-carboxylate)], in data set [1], the “mean composite LSR scores, time of peak” value is listed as “peaked at Week 1”; the “mean composite LSR scores at Week 8” value was “below baseline at Week 8”; the “number of SAEs of SCC within treated areas” value is listed as “Two”; the “most common treatment related AEs” value was “pruritus, burning sensation and tenderness”. The “incidence of AEs inside STAs” value in data set [1] (between treatments) is “no difference”. For the same molecule, in data set [1] (possibly related AE, reclassified to SAE by sponsor), the “events of Bowen's disease inside treated area” value is reported as “one”. Also, the “change of RCM scores” value in data set [2] (baseline to 8 weeks, between the two actives) is on record as “no difference”. Also, in data set [2], the “RCM findings in lesions” value was “honeycomb pattern of lesions improved, keratosis decreased, and the thickness of stratum corneum and viable epidermis decreased”. In addition, the “efficacy in eliminating dermal tumours” value in the data set on dermal tumours is “more efficacious than ingeno mebutate”.

Turning to `C/C=C(/C)C(=O)O[C@H]1C(C)=C[C@]23C(=O)[C@@H](C=C(CO)[C@@H](O)[C@]12O)[C@H]1[C@@H](C[C@H]3C)C1(C)C` [ingenol mebutate, reference compound], in data set [1], the “mean composite LSR scores, time of peak” value is “peaked at Week 1”; the “mean composite LSR scores at Week 8” value is listed as “below baseline at Week 8”; the “number of SAEs of SCC within treated areas” value was “two”; the “most common treatment related AEs” value is “pruritus, burning sensation and tenderness”. For the same molecule, the “RCM findings in lesions” value in data set [2] was “honeycomb pattern of lesions improved, keratosis decreased, and the thickness of stratum corneum and viable epidermis decreased”. Also, in data set [3], the “local skin reactions after a given dose” value was “milder on difficult to treat anatomical regions”.

The record behind these values is US9713608B2, “Method for topically treating actinic keratosis on the trunk (except chest) or extremities with ingenol 3-(3,5-diethylisoxazole-4-carboxylate)” (LEO Laboratories Limited, priority 2013, dated 2017).
